Test results reported in US8889674B2, “Piperidine and pyrrolidine derivatives having NPY Y5 receptor antagonism” (Shionogi & Co., Ltd., priority 2009, dated 2014).

The compounds below were run against T1, mouse NPY Y5 receptor (Mus musculus, UniProt O70342) (assay: Affinity for NPY Y5 receptor: 125I peptide YY binding to membranes of CHO cells expressing mouse NPY Y5 receptor). Settings: mouse NPY Y5 receptor in CHO cell membranes, 125I peptide YY 60 pM, 25° C., 2 hours.
T1 construct: expressed in transfected cells
T1 sequence (O70342 1-466): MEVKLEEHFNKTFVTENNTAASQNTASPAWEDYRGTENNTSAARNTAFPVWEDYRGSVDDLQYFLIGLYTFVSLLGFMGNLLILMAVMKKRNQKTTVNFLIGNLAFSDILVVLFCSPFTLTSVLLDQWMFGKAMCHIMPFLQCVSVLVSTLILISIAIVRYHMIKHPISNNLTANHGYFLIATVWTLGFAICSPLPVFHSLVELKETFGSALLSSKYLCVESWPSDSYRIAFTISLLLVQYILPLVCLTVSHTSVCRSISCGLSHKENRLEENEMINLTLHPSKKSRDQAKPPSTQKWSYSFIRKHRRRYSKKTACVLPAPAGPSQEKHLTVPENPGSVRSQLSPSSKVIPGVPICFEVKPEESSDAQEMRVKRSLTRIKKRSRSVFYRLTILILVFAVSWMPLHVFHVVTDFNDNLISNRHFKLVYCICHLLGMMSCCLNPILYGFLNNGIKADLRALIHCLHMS
Excerpt: cDNA sequence encoding mouse NPY Y5 receptor (Biochem. Biophys. Acta 1328: 83-89, 1997) was cloned in the expression vector (pME18S, Takebe et al. Mol. Cell. Biol. 8, 466-472). The obtained expression vector was transfected into CHO cells as a host according to the instruction manual using Lipofectamine reagent (Trademark, Gibco BRL Co., Ltd.). The cells that stably express NPY Y5 receptor were obtained.
The membrane samples prepared from the CHO cells expressing NPY Y5 receptor, the compound of the invention and 30,000 cpm ^125I peptide YY (60 pM of final concentration: Amersham) were incubated in the assay buffer (20 mM HEPES-Hanks buffer containing 0.1% bovine serum albumin, pH 7.4) at 25° C. for 2 hours. The membrane samples were then filtered from the mixture through a glassfilter (GF/C) presoaked with 1% polyethyleneimine. After washing with 50 mM Tris-HCl buffer (pH 7.4), radioactivity retained on the filters was determined using gamma counter. Non-specific binding was determined in the presence of 200 nM of peptide YY and calculated the 50% inhibitory concentration (IC50 value) of the test compound for specific peptide YY binding (Inui, A. et al. Endocrinology 131, 2090-2096 (1992)).

IC50	SMILES
0.47 nM	CC(=O)N1CCC[C@@H]1C(=O)N1CCC(C(=O)Nc2cccc(-c3ccccc3F)c2)CC1 [Ia-4]
0.28 nM	CC(=O)N1CCC[C@@H]1C(=O)N1CCC(c2nc3ccc(-c4ccccc4F)cc3[nH]2)CC1 [Ia-5]
1.56 nM	C[C@@H]1CC(F)(F)CN1C(=O)N1CCC(C(=O)Nc2cccc(-c3ccccc3F)c2)CC1 [Ia-18]
0.29 nM	O=C(Nc1ccc(OC(F)F)cc1)C1CCN(C(=O)Cn2c(-c3ccccc3)noc2=O)CC1 [Ia-19]
0.22 nM	CC(C)c1noc(=O)n1CC(=O)N1CCC(C(=O)Nc2cccc(-c3ccccc3F)c2)CC1 [Ia-22]
0.96 nM	O=C(Cn1cc(Cl)ccc1=O)N1CCC(c2cc3cc(OC(F)F)ccc3[nH]2)CC1 [Ia-28]
0.97 nM	O=C(Cn1cc(Cl)ccc1=O)N1CCC(c2cc3cc(-c4ccccn4)ccc3[nH]2)CC1 [Ia-29]
0.59 nM	N#Cc1ccccc1C(=O)N1CCC(C(=O)Nc2ccn(-c3ccccc3F)n2)CC1 [Ia-34]
0.26 nM	N#Cc1ccccc1C(=O)N1CCC(C(=O)Nc2cccc(-c3ccccc3F)c2)CC1 [Ia-35]
0.27 nM	N#Cc1ccccc1C(=O)N1CCC(C(=O)Nc2ccnc(-c3ccccc3F)c2)CC1 [Ia-40]
0.31 nM	N#Cc1ccccc1C(=O)N1CCC(C(=O)Nc2cccc(-c3ccccn3)c2)CC1 [Ia-41]
0.26 nM	N#Cc1ccccc1C(=O)N1CCC(C(=O)Nc2ccc(-c3ccccc3)cc2)CC1 [Ia-44]
0.38 nM	N#Cc1ccccc1C(=O)N1CCC(C(=O)Nc2cccc(Oc3ccccc3)c2)CC1 [Ia-47]
0.28 nM	N#Cc1ccccc1C(=O)N1CCC(C(=O)Nc2cccc(Oc3ccccc3F)c2)CC1 [Ia-52]
0.39 nM	N#Cc1ccccc1C(=O)N1CCC(C(=O)Nc2cccc(-c3nccs3)c2)CC1 [Ia-54]
0.23 nM	CC(C)n1ccc2cc(NC(=O)C3CCN(C(=O)c4ccccc4C#N)CC3)ccc21 [Ia-57]
1.77 nM	CC(C)c1ccccc1C(=O)N1CCC(C(=O)Nc2ccc(OC(F)F)cc2)CC1 [Ia-62]

IC50	SMILES
0.33 nM	N#Cc1ccccc1C(=O)N1CC[C@H](C(=O)Nc2cccc(-c3ccccc3F)c2)C1 [Ia-63]
0.25 nM	N#Cc1ccccc1C(=O)N1CC[C@H](C(=O)Nc2ccn(-c3ccccc3F)n2)C1 [Ia-65]
0.2 nM	N#Cc1ccc(F)cc1C(=O)N1CCC(C(=O)Nc2cccc(-c3ccccc3F)c2)CC1 [Ia-68]
0.18 nM	N#Cc1ccc(F)cc1C(=O)N1CCC(C(=O)Nc2cccc(-c3ccccn3)c2)CC1 [Ia-70]
0.37 nM	N#Cc1ccc(F)cc1C(=O)N1CCC(C(=O)Nc2cccc(-c3ncccn3)c2)CC1 [Ia-71]
0.12 nM	N#Cc1ccccc1C(=O)N1CCC(c2nc(-c3ccc(Cl)c(Cl)c3)c[nH]2)CC1 [Ia-85]
0.17 nM	N#Cc1ccccc1C(=O)N1CCC(c2nc(-c3cccc(C(F)(F)F)c3)c[nH]2)CC1 [Ia-87]
0.35 nM	Cc1[nH]c(C2CCN(C(=O)c3ccccc3C#N)CC2)nc1-c1ccccc1 [Ia-88]
0.19 nM	N#Cc1ccccc1C(=O)N1CCC(c2nc3cc(-c4ccccc4F)ccc3[nH]2)CC1 [Ia-93]
0.3 nM	N#Cc1ccccc1C(=O)N1CCC(c2cc(-c3ccc(Cl)c(Cl)c3)n[nH]2)CC1 [Ia-94]
0.64 nM	N#Cc1ccccc1CN1CCC(C(=O)Nc2cccc(-c3ccccc3F)c2)CC1 [Ia-99]
2 nM	O=C(Nc1cccc(-c2ccccc2F)c1)C1CCN(C(=O)c2ccccc2C(F)(F)F)CC1 [Ia-104]
1.5 nM	O=C(Nc1ccn(-c2ccccc2F)n1)[C@H]1CCN(C(=O)c2ccccc2C(F)(F)F)C1 [Ia-106]
0.48 nM	CC(C)n1ccc2cc(NC(=O)C3CCN(C(=O)c4ccccc4C(F)(F)F)CC3)ccc21 [Ia-108]
4.28 nM	O=C(Nc1cccc(-c2ccccc2F)c1)C1CCN(C(=O)c2cc(Cl)ccn2)CC1 [Ia-113]
1.43 nM	CC(C)n1cccc1C(=O)N1CCC(C(=O)Nc2cccc(-c3ccccc3F)c2)CC1 [Ia-116]
